Two compounds from patent US20110237436A1, “Hydrate and anhydrous crystal form of the sodium salt of 2-iodo-N-[(4-methoxy-6-methyl-1,3,5-triazin-2-yl)carbamoyl]benzenesulfonamide, process for preparation thereof and use thereof as herbicides and plant growth regulators” (BAYER CROPSCIENCE AG, priority 2010, published 2011) can be followed below.

A short description of series [1]: Stability tests: storage of oil dispersions of the active ingredient. It is filed as physicochemical. An excerpt:
The oil dispersions described were produced analogously to DE 19951427.

Series [2] in a line: Practical testing of suspension formulations. As to conditions: effects occur spontaneously or over a longer period. In kind it is physicochemical. An excerpt: The compound of the formula (I) known, for example, from WO 2009/053058 (compound I-2 in table 1 therein) has herbicidal properties and is suitable for the production of crop protection compositions which can be employed for weed control. […] User-friendly administration forms are, for example, suspension formulations or solid formulations in which the compound of the formula (I) is present in finely ground, solid form. […] There may, for example, be precipitation, crystal growth or solidification, such that the suspension formulation becomes unusable. These effects can occur spontaneously or over a longer period and cannot be foreseen.

[3] abbreviates: in the course of production of oil dispersions or storage at room temperature, within hours or a few days.
Setting [4] is: oil dispersion produced analogously to DE 19951427, storage at different temperatures for several weeks.

Take `COc1nc(C)nc(NC(=O)[N-]S(=O)(=O)c2ccccc2I)n1.[Na+]` [amorphous sodium salt, sodium salt of 2-iodo-N-[(4-methoxy-6-methyl-1,3,5-triazin-2-yl)carbamoyl]benzenesulfonamide]: in series [1] (setting [3]), the “change in viscosity of the oil dispersions” value was “significant rises in viscosity, up to and including complete solidification”; the “precipitation or crystallization of the active ingredient in the oil dispersion” value is given as “precipitation or crystallization of the active ingredient”. For the same compound, the “physical stability of suspension formulations” value in series [2] is “physically unstable formulations”.

Regarding `COc1nc(C)nc(NC(=O)[N-]S(=O)(=O)c2ccccc2I)n1.[Na+]` [hydrate, hydrate of the sodium salt of 2-iodo-N-[(4-methoxy-6-methyl-1,3,5-triazin-2-yl)carbamoyl]benzenesulfonamide], in series [1] (setting [4]), the “change in the viscosity of the oil dispersions” value is “Nor was any change found in the viscosity” and the “signs of precipitation or crystallization of the active ingredient in the oil dispersion” value is “did not exhibit any signs of precipitation or crystallization of the active ingredient”.
